Assay: Stability of Racecadotril in Buffer
Format: physicochemical
Protocol: For comparative purposes, the stability of racecadotril was analyzed when solubilized in pH 4.5 Acetate buffer and pH 4.5 Citrate buffer (Table 4). Test Methods Sample Preparation: • 1. Pipet 1 mL of Racecadotril solution into a 100 mL volumetric flask (V.F.) • 2. Dilute to volume with the same buffer used in the solution preparation. • 3. Further dilute the sample solution to about 0.1 mg/mL if necessary. […] Parameters may be modified to optimize chromatography. • The assay of Racecadotril is determined by using the external standard injected. The degradation products levels are determined by % peak area relative to the Racecadotril peak. Chromatographic Conditions (European Pharmacopoeia Racecadotril Method): […]

Structure (SMILES): CC(=O)SCC(Cc1ccccc1)C(=O)NCC(=O)OCc1ccccc1 (racemic) [Racecadotril]
- solubility in buffer versus water: more soluble in buffer than in water
- stability in buffer versus water (40° C. and 4 weeks): more stable in a buffer than in water

Reference: US9114171B2, “Racecadotril liquid compositions” (McNeil-PPC, Inc., priority 2012, dated 2015)
